# Results: PubChem BioAssay AID540252 (Sanford-Burnham Center for Chemical Genomics, 2011)
# The source made the active and inactive calls. No rule for the calls is given here.
# Molecular target: glucose-6-phosphate dehydrogenase-6-phosphogluconolactonase (Plasmodium falciparum 3D7)
# Assay: inhibition of P. falciparum G6PD activity – biochemical, end-point NADPH detection, orthogonal assay, dose response (AID 540252)
# Conditions: purified PfG6PD enzyme, NADPH direct detection
row,Structure (SMILES),IC50
1,Cc1[nH]c2ccccc2c1/C=N/NC(=O)c1cccc(S(=O)(=O)Nc2ccccc2Cl)c1,> 80 µM (inactive)
2,O=C(CCSCCC(=O)NN=Cc1ccccc1)NN=Cc1ccccc1,> 80 µM (inactive)
3,O=C(Nc1nnc(S(=O)(=O)N2CCCCCC2)s1)c1cccc(Br)c1,> 80 µM (inactive)
4,Cc1ccc(-c2csc(NC(=O)c3ccccc3F)c2C(=O)O)cc1,> 80 µM (inactive)
5,Cc1ccc(S(=O)(=O)Oc2cccc(/C=N/Nc3ccc(C(=O)O)cc3)c2)cc1,> 80 µM (inactive)
6,CCNc1ccccc1CP(=O)(c1ccccc1)c1ccccc1O (stereo unspecified),> 80 µM (inactive)
7,COc1cc(C(=O)O/N=C2\C=CC(=O)C=C2C)cc(OC)c1OC,> 80 µM (inactive)
8,OCCN1CCN(C(=S)c2ccc(-c3ccccc3)cc2)CC1,> 80 µM (inactive)
9,COc1ccc(C(=O)Nc2cc(Cl)ccc2C(=O)O)cc1,> 80 µM (inactive)
10,Cc1cc(NC(=O)c2oc3ccccc3c2C)ccc1-n1cnnn1,> 80 µM (inactive)
11,O=C(Nc1nnc(S(=O)(=O)N2CCCCC2)s1)c1ccc(Cl)cc1,> 80 µM (inactive)
12,OCc1ccccc1SSc1ccccc1CO,56.2 µM
13,COc1ccc(CCn2c(NN)nc3c2c(=O)[nH]c(=O)n3C)cc1,> 80 µM (inactive)
14,CCOC(=O)c1c2ccc(OCC(=O)NN)cc2n2ccccc12,> 80 µM (inactive)
15,C=CCOc1ccc(CNc2ccc3[nH]c(=O)[nH]c3c2)cc1OC,> 80 µM (inactive)
16,COc1ccc(C(=O)c2c(C(F)(F)F)oc3c2C(=O)c2ccccc2C3=O)cc1,> 80 µM (inactive)
17,COc1ccc(Nc2cc(C)c3c(O)cccc3n2)cc1,> 80 µM (inactive)
18,O=C(Nc1nnc(S(=O)(=O)N2CCCC2)s1)c1cccc([N+](=O)[O-])c1,> 80 µM (inactive)
19,Cc1cc(C)c(S(=O)(=O)/N=C2/C=C(SCC(=O)O)C(=O)c3ccccc32)cc1C,> 80 µM (inactive)
20,Cn1c2ccccc2c2ccc3c(c21)C(=O)C=CC3=O,> 80 µM (inactive)
21,CN=c1scc(C)n1/N=C/c1ccc(O)c(O)c1O,> 80 µM (inactive)
22,COc1cc(OC)c(C2CC(=O)N3CN(c4ccccc4)CSC3=C2C#N)cc1OC (stereo unspecified),> 80 µM (inactive)
23,Cc1ccc(S(=O)(=O)Nc2nc(C)c(C(=O)N/N=C/c3ccccc3)s2)cc1,> 80 µM (inactive)
24,COc1ccc(C(=O)c2c(C(F)(F)F)oc3c2C(=O)c2ccccc2C3=O)cc1OC,> 80 µM (inactive)
25,COC(=O)c1ccccc1NC1=C/C(=N\S(=O)(=O)c2cccs2)c2ccccc2C1=O,> 80 µM (inactive)
26,CN(CCO)c1cc(Sc2nc3ccccc3s2)c2nonc2c1[N+](=O)[O-],24 µM

row,Structure (SMILES),IC50
1,Cc1ccc(/C=C/C(=O)NCC2COc3ccccc3O2)o1 (stereo unspecified),> 80 µM (inactive)
2,COc1cc(NCc2ccccc2)c2ncn(Cc3ccccc3)c2c1,> 80 µM (inactive)
3,O=C(O)c1cccc(N2C(=O)C=CC2=O)c1,67.4 µM
4,COc1cc(CN2CCCC(C(=O)c3ccc4c5c(cccc35)CC4)C2)cc(OC)c1O (stereo unspecified),> 80 µM (inactive)
5,Oc1ccc(C23CC4CC(CC(C4)C2)C3)cc1O,52 µM
6,Cc1ccc2nc3sc(C(=O)N4CCOCC4)c(N)c3cc2c1,> 80 µM (inactive)
7,O=S(=O)(Nc1cccc2cccnc12)c1ccccc1,> 80 µM (inactive)
8,O=S(=O)(NCc1csc(-c2ccccc2)n1)c1ccc(Cl)s1,> 80 µM (inactive)
9,CN1CCN(C(=S)c2ccc([N+](=O)[O-])cc2)CC1,65.5 µM
10,CC(=O)Nc1cc2c(cc1[N+](=O)[O-])-c1ccccc1C2O (stereo unspecified),74.5 µM
11,NCCNc1ccc(C(=O)N2c3ccccc3Sc3ccccc32)cc1[N+](=O)[O-],13.2 µM
12,COC1=CC(=O)C=C(OC)C1(O)CC(C)=O,> 80 µM (inactive)
13,CCN=c1scc(C)n1/N=C/c1ccc(O)c(O)c1O,> 80 µM (inactive)
14,C=CCOc1c(Cl)cc(CNc2ccc(N(C)C)cc2)cc1OC,> 80 µM (inactive)
15,COc1ccc(S(=O)(=O)Nc2cc(SCC(=O)O)c(O)c3ccccc23)cc1,> 80 µM (inactive)
16,CCN(CC)CCn1c2ccccc2c(=O)c2c(O)ccc(O)c21,> 80 µM (inactive)
17,Cc1noc(C(=O)Nc2sc3c(c2C#N)CCC3)c1Cl,> 80 µM (inactive)
18,CCSc1nc2cc(S(=O)(=O)N3CCOCC3)ccc2o1,> 80 µM (inactive)
19,COc1cc(CNc2ccc(N3CCCC3)cc2)cc(Cl)c1OC,> 80 µM (inactive)
20,COc1ccc(CN(C)S(=O)(=O)c2nnc(NC(=O)c3ccc(C)cc3)s2)cc1OC,> 80 µM (inactive)
21,COc1cc(Sc2ccc(C)cc2)c(OC)cc1N,> 80 µM (inactive)
22,Cc1ccc(/C=C2\C(=O)NC(=S)N(c3ccccc3F)C2=O)s1,> 80 µM (inactive)
23,CCN(CC)c1ccc(NC(=O)c2cccc(C)c2)cc1S(=O)(=O)Nc1ccccc1OC,> 80 µM (inactive)
24,N#Cc1ccc2sn(-c3ccccc3)c(=O)c2c1,15.2 µM
25,c1nc(SSc2ncnc3nc[nH]c23)c2[nH]cnc2n1,28.7 µM
26,CC1(OC(=O)C2CCCC2)C(=O)C=C2C=C(c3ccsc3)N(CCc3c[nH]c4ccccc34)C=C2C1=O (stereo unspecified),> 80 µM (inactive)

row,Structure (SMILES),IC50
1,COC(=O)c1cc2c(n1S(=O)(=O)c1ccc(C)cc1)C(=O)C(=O)c1[nH]cc(C(=O)OCc3ccccc3)c1-2,> 80 µM (inactive)
2,COc1ccc2c(c1)c(=Cc1ccc(N(C)C)cc1)c1cc(-c3ccccc3)[n+](C)n12,> 80 µM (inactive)
3,CCOc1ccc2ccccc2c1/C=N/NC(=O)c1ccncc1,> 80 µM (inactive)
4,CC(=O)OCCCNc1cc(Sc2nc3ccccc3s2)c2nonc2c1[N+](=O)[O-],> 80 µM (inactive)
5,CC(C)Nc1ccc(Nc2ccccc2)cc1,> 80 µM (inactive)
6,C=CCN1C=C2C(=O)C(C)(OC(=O)CCC(=O)OC)C(=O)C(Br)=C2C=C1c1ccc(OC)cc1 (stereo unspecified),> 80 µM (inactive)
7,[O-]/[N+](=C/c1cccnc1)c1ccc(Br)cc1,> 80 µM (inactive)
8,CN(C)Cc1cc(O)c(CN(C)C)cc1O,> 80 µM (inactive)
9,Cc1cccc(-n2c(=S)[nH]c3sc4c(c3c2=O)CCc2ccccc2-4)c1,> 80 µM (inactive)
10,COc1ccc(N=C2C(=S)N(c3ccc(OC)cc3)C(=NS(=O)(=O)c3ccccc3)N2c2ccccc2)cc1,> 80 µM (inactive)
11,CCN(CC)c1ccc(NC(=O)c2ccccc2Br)cc1S(=O)(=O)Nc1ccccc1OC,> 80 µM (inactive)
12,Cc1ccc(Cl)cc1NC1=C/C(=N\S(=O)(=O)c2cccs2)c2ccccc2C1=O,> 80 µM (inactive)
13,CN1CCN(C(=O)c2sc(=S)n(-c3ccccc3)c2N)CC1,54.6 µM
14,O=S(=O)(Nc1ccc(Cl)cc1)c1ccc(N2CCOCC2)c(NC(=S)NCCN2CCOCC2)c1,> 80 µM (inactive)
15,C[C@H](NC(N)=O)C(=O)Nc1ccc(N2CCOCC2)c(S(=O)(=O)Nc2ccc(Cl)cc2)c1,> 80 µM (inactive)
16,Nn1c(CSc2nc3ccccc3o2)nnc1CSc1nc2ccccc2o1,> 80 µM (inactive)
17,c1cc2c(cc1NC1CCCCCC1)OCO2,> 80 µM (inactive)
18,O=C(Nc1ccccn1)c1sc2cc([N+](=O)[O-])ccc2c1Cl,> 80 µM (inactive)
19,O=C1C=CC(=O)N1CCNc1ncc(C(F)(F)F)cc1Cl,65.4 µM
20,COc1ccccc1N1C(=O)C=C(Sc2nc(C)cc(C)n2)C1=O,> 80 µM (inactive)
21,CC1(C)Nc2ccc(O)cc2-c2c1ssc2=S,> 80 µM (inactive)
22,COc1ccc(OCc2nnc3n2N=C(c2ccccc2)C(CC(=O)O)S3)cc1 (stereo unspecified),> 80 µM (inactive)
23,Cc1ccc(-c2nc(N3CCOCC3)s[n+]2-c2ccccc2)cc1,> 80 µM (inactive)
24,Cc1cc(SCC(=O)N/N=C/c2ccco2)nc2ccccc12,> 80 µM (inactive)
25,Cc1ccsc1/C=N\NC(=O)CC(=O)NCc1ccccc1,> 80 µM (inactive)
26,O=C(Nc1ccc(N2CCOCC2)c(Cl)c1)c1ccc(Cl)cc1,> 80 µM (inactive)

row,Structure (SMILES),IC50
1,CC1(C)CN(c2ccccc2)N(C(=O)c2ccc(C#N)cc2)C1=O,> 80 µM (inactive)
2,O=C(Nc1ccccc1C(=O)N/N=C/c1ccco1)c1ccccc1Cl,> 80 µM (inactive)
3,O=C1NC(=O)C(=Cc2ccc(-c3ccccc3[N+](=O)[O-])o2)C(=O)N1,> 80 µM (inactive)
4,Cc1[nH]c2ccccc2c1/C=N/Nc1nncn1N,> 80 µM (inactive)
5,Oc1cc(CNCc2ccccc2)c(O)cc1CNCc1ccccc1,> 80 µM (inactive)
6,CCNc1cc2c(cc1O)CCC1C2CCC2(C)C(O)CCC12 (stereo unspecified),> 80 µM (inactive)
7,O=c1c2cc(C(F)(F)F)ccc2sn1-c1ccccc1,26.2 µM
8,Cn1c(=O)[nH]c(=O)c2c1nc([N+](=O)[O-])n2Cc1ccccc1,> 80 µM (inactive)
9,CCN1CCCC1CNC(=O)c1ccc2c(c1)NC(=O)/C(=C\c1ccccc1F)S2 (stereo unspecified),> 80 µM (inactive)
10,Cc1ccc(S(=O)(=O)C=CS(=O)(=O)c2ccc(C)cc2)cc1,33.6 µM
11,Brc1cc2[nH]cnc2c2ccccc12,> 80 µM (inactive)
12,O=c1c2ccccc2sn1-c1ccc(S(=O)(=O)N2CCCCC2)cc1,> 80 µM (inactive)
13,COc1ccc(S(=O)(=O)/N=C2\C=C(Nc3ccc(O)cc3)C(=O)c3ccccc32)cc1,> 80 µM (inactive)
14,Cc1ccc(C(=O)/C=C/C(=O)c2ccc(C)cc2)cc1,42 µM
15,O=C1C(c2cc(=O)c3ccccc3[nH]2)=C(O)c2ccccc21,> 80 µM (inactive)
16,CCCn1cc(S(=O)(=O)CC(=O)Nc2ccc(OC)cc2OC)c2ccccc21,> 80 µM (inactive)
17,Cc1nc2ccccn2c1-c1ccnn1S(=O)(=O)c1ccc(F)cc1,> 80 µM (inactive)
18,N#C/C(C(=O)Nc1ccc(Cl)cc1)=C(/S)Nc1ccccc1,> 80 µM (inactive)
19,COc1cc(/C=N/Nc2nncn2N)ccc1OCc1c(C)no[n+]1[O-],> 80 µM (inactive)
20,CN1/C(=C\C(=O)c2cccs2)Sc2ccccc21,> 80 µM (inactive)
21,COc1cccc(CNc2ccc3[nH]c(=O)[nH]c3c2)c1OCc1ccccc1Cl,> 80 µM (inactive)
22,O=C1NC(=O)N(c2ccccc2)C(=O)/C1=C/c1ccc([N+](=O)[O-])s1,> 80 µM (inactive)
23,Nc1[nH]c(=O)[nH]c(=O)c1N=Cc1ccccc1,> 80 µM (inactive)
